Experimental data from patent US12077503B2, “Substituted cyclic amides and their use as herbicides” (FMC CORPORATION, priority 2015, dated 2024).

How the values were obtained:
Format in all cases: in vivo
[1] = tested on: ryegrass, Italian (Italian ryegrass, Lolium multiflorum); assay: Test A postemergence
In short: (§1)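 Preemergence soil spray on seeded pots or post-emergence spray on 1–2 leaf plants, in loam–sand blend. Greenhouse ~10 d. Visual rating 0–100 against untreated plants.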

[2] = tested on: Galium (catchweed bedstraw, Galium aparine); assay: Test A postemergence
In short: as §1

[3] = tested on: wheat (Triticum aestivum); assay: Test A postemergence
In short: as §1

[4] = tested on: giant foxtail (Setaria faberii); assay: Test A postemergence
In short: as §1

Kochia (Kochia scoparia) [5] = assay: Test A postemergence
In short: as §1

[6] = tested on: blackgrass (Alopecurus myosuroides); assay: Test A postemergence
In short: as §1

corn (Zea mays) = assay: Test A postemergence
In short: as §1

[7] = tested on: barnyardgrass (Echinochloa crus-galli); assay: Test A postemergence
In short: as §1

[8] = tested on: ragweed (common ragweed, Ambrosia elatior); assay: Test A postemergence
In short: as §1

[9] = tested on: pigweed (Amaranthus retroflexus); assay: Test A postemergence
In short: as §1

[10] = tested on: ducksalad (Heteranthera limosa); assay: Test B flooded paddy test; conditions: Flood, 250 g ai/ha; 0 to 100 scale where 0 is no effect and 100 is complete control; 13 to 15 d
In short: (§2)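 Rating scale 0–100 (visual, vs untreated controls) after a 13–15 d greenhouse period; application to the flood layer, 3 cm above soil and maintained; plants at 2-leaf stage when treated.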

[11] = tested on: barnyardgrass (Echinochloa crus-galli); assay: Test B flooded paddy test; conditions: Flood, 250 g ai/ha; 0 to 100 scale where 0 is no effect and 100 is complete control; 13 to 15 d
In short: as §2

rice (Oryra sativa) = assay: Test B flooded paddy test; conditions: Flood, 250 g ai/ha; 0 to 100 scale where 0 is no effect and 100 is complete control; 13 to 15 d
In short: as §2

[12] = tested on: sedge, umbrella (small-flower umbrella sedge, Cyperus difformis); assay: Test B flooded paddy test; conditions: Flood, 250 g ai/ha; 0 to 100 scale where 0 is no effect and 100 is complete control; 13 to 15 d
In short: as §2

[13] = tested on: ryegrass, Italian (Italian ryegrass, Lolium multiflorum); assay: Test A preemergence; conditions: Preemergence
In short: as §1

[14] = tested on: giant foxtail (Setaria faberii); assay: Test A preemergence; conditions: Preemergence
In short: as §1

Kochia (Kochia scoparia) [15] = assay: Test A preemergence; conditions: Preemergence
In short: as §1

[16] = tested on: barnyardgrass (Echinochloa crus-galli); assay: Test A preemergence; conditions: Preemergence
In short: as §1

[17] = tested on: ragweed (common ragweed, Ambrosia elatior); assay: Test A preemergence; conditions: Preemergence
In short: as §1

[18] = tested on: pigweed (Amaranthus retroflexus); assay: Test A preemergence; conditions: Preemergence
[19] = 125 g ai/ha, postemergence, visual rating after approx. 10 d, 0 to 100 scale (0 no effect, 100 complete control)
[20] = Postemergence, 500 g ai/ha, 0 to 100 scale where 0 is no effect and 100 is complete control
[21] = 125 g ai/ha, visual injury after approximately 10 d, 0 to 100 scale where 0 is no effect and 100 is complete control
[22] = 500 g ai/ha, visual injury approx. 10 d

## O=C1NCC(c2cccc(C(F)(F)F)c2F)C1C(=O)Nc1ccc(F)cc1F (stereo not drawn) [Compound 592]
[1]; [19]
  Plant response rating, Ryegrass, Italian: 0
[1]; [20]
  Plant response rating, Ryegrass, Italian: 0
[2]; [19]
  Plant response rating, Galium: 20
[2]; [20]
  Plant response rating, Galium: 30
[3]; [19]
  Plant response rating, Wheat: 30
[3]; [20]
  Plant response rating, Wheat: 70
[4]; [19]
  Plant response rating, Foxtail, Giant: 80
[4]; [20]
  Plant response rating, Foxtail, Giant: 90
Kochia (Kochia scoparia) [5]; [19]
  Plant response rating, Kochia: 0
Kochia (Kochia scoparia) [5]; [20]
  Plant response rating, Kochia: 40
[6]; [19]
  Plant response rating, Blackgrass: 30
[6]; [20]
  Plant response rating, Blackgrass: 60
Corn (Zea mays); [19]
  Plant response rating, Corn: 50
Corn (Zea mays); [20]
  Plant response rating, Corn: 70
[7]; [19]
  Plant response rating, Barnyardgrass: 80
[7]; [20]
  Plant response rating, Barnyardgrass: 90
[8]; [19]
  Plant response rating, Ragweed: 0
[8]; [20]
  Plant response rating, Ragweed: 0
[9]; [19]
  Plant response rating, Pigweed: 0
[9]; [20]
  Plant response rating, Pigweed: 0
[10]
  Plant response rating, Ducksalad: 80
[11]
  Plant response rating, Barnyardgrass: 55
Rice (Oryra sativa)
  Plant response rating, Rice: 0
[12]
  Plant response rating, Sedge, Umbrella: 0
[13]; [21]
  Plant response rating, Ryegrass, Italian: 0
[13]; [22]
  Ryegrass, Italian plant response rating (0 to 100 scale, 0 is no effect, 100 is complete control): 50
[14]; [21]
  Plant response rating, Foxtail, Giant: 90
[14]; [22]
  Foxtail, Giant plant response rating (0 to 100 scale, 0 is no effect, 100 is complete control): 90
Kochia (Kochia scoparia) [15]; [21]
  Plant response rating, Kochia: 0
Kochia (Kochia scoparia) [15]; [22]
  Kochia plant response rating (0 to 100 scale, 0 is no effect, 100 is complete control): 30
[16]; [21]
  Plant response rating, Barnyardgrass: 90
[16]; [22]
  Barnyardgrass plant response rating (0 to 100 scale, 0 is no effect, 100 is complete control): 90
[17]; [21]
  Plant response rating, Ragweed: 0
[17]; [22]
  Ragweed plant response rating (0 to 100 scale, 0 is no effect, 100 is complete control): 20
[18]; [21]
  Plant response rating, Pigweed: 0
[18]; [22]
  Pigweed plant response rating (0 to 100 scale, 0 is no effect, 100 is complete control): 0
